From patent US20150164895A1, “DETERMINING SENSITIVITY OF CELLS TO B-RAF INHIBITOR TREATMENT BY DETECTING KRAS MUTATION AND RTK EXPRESSION LEVELS” (GENENTECH, INC., priority 2009, published 2015)
Values joined by “and” are separate entries in the source; they are usually repeats but may differ in a detail not shown here. Equal values may be shown once.

System: lung tumor xenografts
Experiment: Experiment H327: growth in lung tumor xenografts after dosing with B-RAF inhibitor
Format: in vivo, mice
Conditions: H327-2, LXFA 1041/9N4, 100 mg/kg/day po Days 0-20; for Absolute body weight / Relative body weight: individual animal; for Relative tumor volume: individual tumor; for Absolute body weight, Median / Relative body weight, Median: group median n 10; for Absolute tumor volume: (a*b*b)/2, Median / Relative tumor volume, Median: group median n 20
Text: FIGS. 10-18 depict growth in lung tumor xenografts after dosing with GDC-0879.
The data are shown below, and in FIGS. 10-14 for Experiment H331 and FIGS. 15-18 for Experiment H327.

[1] = study day 3, listed as G-026887
[2] = study day 7, listed as G-026887
[3] = study day 10, listed as G-026887
[4] = study day 14, listed as G-026887

In the case of `OCCn1cc(-c2ccc3c(c2)CC/C3=N\O)c(-c2ccncc2)n1` [GDC-0879, 2-{4-[(1E)-1-(hydroxyimino)-2,3-dihydro-1H-inden-5-yl]-3-(pyridine-4-yl)-1H-pyrazol-1-yl}ethan-1-ol], the Absolute body weight (study day 0, listed as G-026887) is reported as 25.4 g and 28.6 g and 24.5 g (2×) and 24.0 g and 25.1 g and 29.8 g and 31.5 g and 25.0 g and 23.6 g, the Relative tumor volume (study day 0) is reported as 100.0% and the “Absolute body weight, Median” value (study day 3) is reported as 25.3 g. For the same molecule, the “Relative body weight, Median” value (study day 3) was 99.2%, the “Absolute tumor volume: (a*b*b)/2, Median” value (study day 3) was 139.8 mm3 and the “Relative tumor volume, Median” value (study day 3) was 165.4%. The Absolute body weight [1] was 25.6 g and 29.4 g and 24.6 g and 23.8 g and 23.6 g and 25.1 g and 29.3 g and 30.4 g and 25.4 g and 22.9 g, the Relative body weight [1] was 100.8% and 102.8% and 100.4% and 97.1% and 98.3% (2×) and 100.0% and 96.5% and 101.6% and 97.0% and the Relative tumor volume [1] was 193.9% and 208.9% and 154.7% and 187.7% and 202.6% and 157.6% and 110.0% and 160.2% and 138.1% and 194.2% and 138.9% and 172.0% and 178.9% and 185.0% and 157.3%. For the same molecule, the “Absolute body weight, Median” value (study day 7) was 25.7 g, the “Relative body weight, Median” value (study day 7) was 101.4% and the “Absolute tumor volume: (a*b*b)/2, Median” value (study day 7) was 228.0 mm3. The “Relative tumor volume, Median” value (study day 7) was 258.8%, the Absolute body weight [2] was 25.9 g and 30.9 g and 25.2 g and 24.3 g and 24.4 g and 25.4 g and 29.8 g and 30.5 g and 26.3 g and 22.6 g and the Relative body weight [2] was 102.0% and 108.0% and 102.9% and 99.2% and 101.7% and 101.2% and 100.0% and 96.8% and 105.2% and 95.8%. For the same molecule, the Relative tumor volume [2] was 452.1% and 329.8% and 300.6% and 260.9% and 376.4% and 256.7% and 340.1% and 324.4% and 232.6% and 248.9% and 223.2% and 293.8% and 281.8% and 209.2%, the “Absolute body weight, Median” value (study day 10) was 25.5 g and the “Relative body weight, Median” value (study day 10) was 100.5%. The “Absolute tumor volume: (a*b*b)/2, Median” value (study day 10) was 305.5 mm3, the “Relative tumor volume, Median” value (study day 10) was 388.4% and the Absolute body weight [3] was 25.5 g (2×) and 30.4 g and 24.9 g and 24.3 g and 23.8 g and 30.0 g and 30.6 g and 26.1 g and 22.0 g. For the same molecule, the Relative body weight [3] was 100.4% and 106.3% and 101.6% (2×) and 99.2% (2×) and 100.7% and 97.1% and 104.4% and 93.2%, the Relative tumor volume [3] was 586.9% and 487.4% and 508.8% and 376.4% and 414.0% and 411.7% and 522.2% and 562.3% and 323.9% and 342.2% and 332.9% and 385.0% and 391.8% and 264.6% and the “Absolute body weight, Median” value (study day 14) was 25.6 g. The “Relative body weight, Median” value (study day 14) was 101.4%, the “Absolute tumor volume: (a*b*b)/2, Median” value (study day 14) was 541.3 mm3 and the “Relative tumor volume, Median” value (study day 14) was 605.0%. The Absolute body weight [4] was 25.1 g and 30.7 g and 24.8 g and 24.6 g and 24.4 g and 26.1 g and 31.2 g and 30.4 g and 26.8 g and 22.7 g, the Relative body weight [4] was 98.8% and 107.3% and 101.2% and 100.4% and 101.7% and 104.0% and 104.7% and 96.5% and 107.2% and 96.2% and the Relative tumor volume [4] was 964.1% and 811.9% and 593.5% and 515.7% and 743.1% and 697.3% and 1076.6% and 1151.3% and 503.3% and 616.5% and 626.8% and 523.7% and 733.4% and 523.3%. For the same molecule, the “Absolute body weight, Median” value (study day 17) was 25.7 g, the “Relative body weight, Median” value (study day 17) was 102.7% and the “Absolute tumor volume: (a*b*b)/2, Median” value (study day 17) was 789.5 mm3.
